Source: patent publication US20260317320A1, “C5AR1 ANTAGONISTS AND USES THEREOF” (Vanqua Bio, Inc., priority 2022, published 2026)
Where two headings read alike, the source gives them in different places.

Legend:
[1] = target: T1, complement C5a receptor 1 (C5aR1) (Homo sapiens, UniProt P21730); experiment: β-arrestin recruitment via C5aR1 activation in live CHO-K1 cells (PathHunter), agonist mode; format: cell-based
T1 construct: β-galactosidase fragment (PathHunter enzyme complementation); host or cells: CHO-K1 (PathHunter CHO-K1 C5aR1 β-arrestin cell line)
T1 sequence (P21730 1-350): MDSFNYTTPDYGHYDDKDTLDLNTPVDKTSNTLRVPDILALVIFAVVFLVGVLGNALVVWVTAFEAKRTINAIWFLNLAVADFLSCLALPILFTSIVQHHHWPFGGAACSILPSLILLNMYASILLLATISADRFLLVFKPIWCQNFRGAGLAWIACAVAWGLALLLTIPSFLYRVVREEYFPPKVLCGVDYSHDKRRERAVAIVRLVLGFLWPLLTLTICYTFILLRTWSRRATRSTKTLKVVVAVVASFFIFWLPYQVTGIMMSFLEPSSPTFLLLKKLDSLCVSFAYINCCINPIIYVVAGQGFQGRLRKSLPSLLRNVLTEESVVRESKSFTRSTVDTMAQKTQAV
Procedure, shortened: (§1)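 Live CHO-K1 cells expressing β-galactosidase fragments fused to β-arrestin and C5aR1; recruitment is read by fragment complementation. In agonist mode compounds are tested alone; in antagonist mode they compete against recombinant hC5a at EC90. IC50 reported in binned ranges.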

[2] = target: T1, complement C5a receptor 1 (C5aR1); experiment: β-arrestin recruitment via C5aR1 activation in live CHO-K1 cells (PathHunter), antagonist mode; format: cell-based; settings: antagonist mode; recombinant hC5a (EC90) as competing natural agonist; live CHO-K1 cells; read-out: [Antagonist] B-arrestin2 recruitment: Average IC50
Procedure, shortened: as §1

| [Agonist] B-arrestin2 recruitment: Average EC50 (nM) [1] | IC50 [2] | [Agonist] B-arrestin2 recruitment: Average EC50 (nM) ([1]; at 10 μM) | Structure (SMILES) |
| --- | --- | --- | --- |
| Non-Active | < 500 nM |  | Cc1cnc2cc([C@H]3CC[C@H](c4cnccc4C(F)F)CC3)c(=O)n(Cc3ncccc3C(F)(F)F)c2n1 [compound 178, 7-((1r,4r)-4-(4-(Difluoromethyl)pyridin-3-yl)cyclohexyl)-3-methyl-5-((3-(trifluoromethyl)pyridin-2-yl)methyl)pyrido[2,3-b]pyrazin-6(5H)-one] |
|  | < 500 nM | Non-Active at 10 μM | Cc1cnc2cc([C@H]3CC[C@H](c4ncccc4C(F)F)CC3)c(=O)n(Cc3ncccc3C(F)(F)F)c2n1 [compound 179, 7-((1r,4r)-4-(3-(Difluoromethyl)pyridin-2-yl)cyclohexyl)-3-methyl-5-((3-(trifluoromethyl)pyridin-2-yl)methyl)pyrido[2,3-b]pyrazin-6(5H)-one] |
|  | < 500 nM | Non-Active at 10 μM | Cc1cnc2cc([C@H]3CC[C@H](c4ncccc4C(F)(F)F)CC3)c(=O)n(Cc3ncccc3C(F)(F)F)c2n1 [compound 180, 3-Methyl-7-((1r,4r)-4-(3-(trifluoromethyl)pyridin-2-yl)cyclohexyl)-5-((3-(trifluoromethyl)pyridin-2-yl)methyl)pyrido[2,3-b]pyrazin-6(5H)-one] |
|  | 5000 to 100000 nM | Non-Active at 10 μM | Cc1cnc2cc(C3CCN(c4ccc5c(cnn5C)c4)CC3)c(=O)n(Cc3ncccc3C(F)(F)F)c2n1 [compound 181, 3-Methyl-7-(1-(1-methyl-1H-indazol-5-yl)piperidin-4-yl)-5-((3-(trifluoromethyl)pyridin-2-yl)methyl)pyrido[2,3-b]pyrazin-6(5H)-one] |
|  | < 500 nM | Non-Active at 10 μM | Cc1cnc2c(cc([C@H]3CC[C@H](c4c(C)cccc4F)CC3)c(=O)n2Cc2ncccc2C(F)(F)F)n1 [compound 182, 7-((1r,4r)-4-(2-Fluoro-6-methylphenyl)cyclohexyl)-2-methyl-5-((3-(trifluoromethyl)pyridin-2-yl)methyl)pyrido[2,3-b]pyrazin-6(5H)-one] |
|  | < 500 nM | Non-Active at 10 μM | Cc1ccc2cc([C@H]3CC[C@H](c4c(C)cccc4F)CC3)c(=O)n(Cc3ncccc3C(F)(F)F)c2n1 [compound 183, 3-((1r,4r)-4-(2-Fluoro-6-methylphenyl)cyclohexyl)-7-methyl-1-((3-(trifluoromethyl)pyridin-2-yl)methyl)-1,8-naphthyridin-2(1H)-one] |
|  | 500 to 5000 nM | Non-Active at 10 μM | Cc1cnc2cc(C3CCN(c4c(F)ccc5c4cnn5C)CC3)c(=O)n(Cc3ncccc3C(F)(F)F)c2n1 [compound 184, 7-(1-(5-Fluoro-1-methyl-1H-indazol-4-yl)piperidin-4-yl)-3-methyl-5-((3-(trifluoromethyl)pyridin-2-yl)methyl)pyrido[2,3-b]pyrazin-6(5H)-one] |
|  | 500 to 5000 nM | Non-Active at 10 μM | Cc1cnc2cc(C3CCN(c4c(C)ccc5c4cnn5C)CC3)c(=O)n(Cc3ncccc3C(F)(F)F)c2n1 [compound 185, 7-(1-(1,5-Dimethyl-1H-indazol-4-yl)piperidin-4-yl)-3-methyl-5-((3-(trifluoromethyl)pyridin-2-yl)methyl)pyrido[2,3-b]pyrazin-6(5H)-one] |
|  | 5000 to 100000 nM | Non-Active at 10 μM | Cc1cnc2cc(C3CCN(c4nn(C)c5ccccc45)CC3)c(=O)n(Cc3ncccc3C(F)(F)F)c2n1 [compound 186, 3-Methyl-7-(1-(1-methyl-1H-indazol-3-yl)piperidin-4-yl)-5-((3-(trifluoromethyl)pyridin-2-yl)methyl)pyrido[2,3-b]pyrazin-6(5H)-one] |
|  | < 500 nM | Non-Active at 10 μM | Cc1cnc2cc([C@H]3CC[C@H](c4cnccc4C(C)(F)F)CC3)c(=O)n(Cc3ncccc3C(F)(F)F)c2n1 [compound 188, 7-((1r,4r)-4-(4-(1,1-Difluoroethyl)pyridin-3-yl)cyclohexyl)-3-methyl-5-((3-(trifluoromethyl)pyridin-2-yl)methyl)pyrido[2,3-b]pyrazin-6(5H)-one] |
|  | < 500 nM | Non-Active at 10 μM | COc1ccnc(F)c1[C@H]1CC[C@H](c2cc3ncc(C)nc3n(Cc3ncccc3C(F)(F)F)c2=O)CC1 [compound 189, 7-((1r,4r)-4-(2-Fluoro-4-methoxypyridin-3-yl)cyclohexyl)-3-methyl-5-((3-(trifluoromethyl)pyridin-2-yl)methyl)pyrido[2,3-b]pyrazin-6(5H)-one] |
|  | 500 to 5000 nM | Non-Active at 10 μM | Cc1cnc2cc([C@H]3CC[C@H](c4c(C)nn(C)c4C)CC3)c(=O)n(Cc3ncccc3C(F)(F)F)c2n1 [compound 190, 3-Methyl-5-((3-(trifluoromethyl)pyridin-2-yl)methyl)-7-((1r,4r)-4-(1,3,5-trimethyl-1H-pyrazol-4-yl)cyclohexyl)pyrido[2,3-b]pyrazin-6(5H)-one] |
|  | 5000 to 100000 nM | Non-Active at 10 μM | Cc1cnc2cc([C@H]3CC[C@H](c4nn(C)c5ccccc54)CC3)c(=O)n(Cc3ncccc3C(F)(F)F)c2n1 [compound 191, 3-Methyl-7-((1r,4r)-4-(1-methyl-1H-indazol-3-yl)cyclohexyl)-5-((3-(trifluoromethyl)pyridin-2-yl)methyl)pyrido[2,3-b]pyrazin-6(5H)-one] |
|  | 500 to 5000 nM | Non-Active at 10 μM | Cc1cnc2cc([C@H]3CC[C@H](c4ccc5c(cnn5C)c4)CC3)c(=O)n(Cc3ncccc3C(F)(F)F)c2n1 [compound 192, 3-Methyl-7-((1r,4r)-4-(1-methyl-1H-indazol-5-yl)cyclohexyl)-5-((3-(trifluoromethyl)pyridin-2-yl)methyl)pyrido[2,3-b]pyrazin-6(5H)-one] |
| Non-Active | < 500 nM |  | Cc1ccc2cc([C@H]3CC[C@H](c4c(C)cccc4F)CC3)c(=O)n(Cc3ncccc3C(F)F)c2n1 [compound 193, 1-((3-(Difluoromethyl)pyridin-2-yl)methyl)-3-((1r,4r)-4-(2-fluoro-6-methylphenyl)cyclohexyl)-7-methyl-1,8-naphthyridin-2(1H)-one] |
| Non-Active | < 500 nM |  | Cc1ccc2cc([C@H]3CC[C@H](c4c(C)cccc4F)CC3)c(=O)n(Cc3nccnc3C(F)(F)F)c2n1 [compound 194, 3-((1r,4r)-4-(2-Fluoro-6-methylphenyl)cyclohexyl)-7-methyl-1-((3-(trifluoromethyl)pyrazin-2-yl)methyl)-1,8-naphthyridin-2(1H)-one] |
| Non-Active | < 500 nM |  | Cc1ccc2cc([C@H]3CC[C@H](c4c(C)cccc4F)CC3)c(=O)n(Cc3ncccc3OC(F)F)c2n1 [compound 195, 1-((3-(Difluoromethoxy)pyridin-2-yl)methyl)-3-((1r,4r)-4-(2-fluoro-6-methylphenyl)cyclohexyl)-7-methyl-1,8-naphthyridin-2(1H)-one] |
| Non-Active | < 500 nM |  | Cc1ccc2cc([C@H]3CC[C@H](c4c(C)cccc4F)CC3)c(=O)n(Cc3ncccc3OC(F)(F)F)c2n1 [compound 196, 3-((1r,4r)-4-(2-Fluoro-6-methylphenyl)cyclohexyl)-7-methyl-1-((3-(trifluoromethoxy)pyridin-2-yl)methyl)-1,8-naphthyridin-2(1H)-one] |
| Non-Active | < 500 nM |  | Cc1ncc2cc([C@H]3CC[C@H](c4c(C)cccc4F)CC3)c(=O)n(Cc3ncccc3OC(F)(F)F)c2n1 [compound 198, 6-((1r,4r)-4-(2-Fluoro-6-methylphenyl)cyclohexyl)-2-methyl-8-((3-(trifluoromethoxy)pyridin-2-yl)methyl)pyrido[2,3-d]pyrimidin-7(8H)-one] |
| Non-Active | < 500 nM |  | COc1cccnc1Cn1c(=O)c([C@H]2CC[C@H](c3c(C)cccc3F)CC2)cc2ncc(C)nc21 [compound 199, 7-((1r,4r)-4-(2-Fluoro-6-methylphenyl)cyclohexyl)-5-((3-methoxypyridin-2-yl)methyl)-3-methylpyrido[2,3-b]pyrazin-6(5H)-one] |
|  | < 500 nM | Non-Active at 10 μM | CCc1cnc2cc([C@H]3CC[C@H](c4c(C)cccc4F)CC3)c(=O)n(Cc3ncccc3C(F)(F)F)c2n1 [compound 201, 3-Ethyl-7-((1r,4r)-4-(2-fluoro-6-methylphenyl)cyclohexyl)-5-((3-(trifluoromethyl)pyridin-2-yl)methyl)pyrido[2,3-b]pyrazin-6(5H)-one] |
|  | < 500 nM | Non-Active at 10 μM | Cc1cnc2cc([C@H]3CC[C@H](c4ccccc4C(F)(F)F)CC3)c(=O)n(Cc3ncccc3C(F)(F)F)c2n1 [compound 202, 3-Methyl-7-((1r,4r)-4-(2-(trifluoromethyl)phenyl)cyclohexyl)-5-((3-(trifluoromethyl)pyridin-2-yl)methyl)pyrido[2,3-b]pyrazin-6(5H)-one] |
